Data as given in patent US20260176289A1, “SMALL MOLECULE INHIBITORS OF KRAS PROTEINS” (Merck Sharp & Dohme LLC, priority 2022, published 2026).
Read-outs that look alike come from different tables or passages of the source.

Legend:
MKN-1 cells = assay: Cellular phospho-ERK assay, MKN-1 cells (amplified wild-type KRAS); format: cell-based; settings: Homo sapiens, read-out: MKN1 pERK IC50
How it was run: (§1)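 p-ERK/total ERK ratio, measured by AlphaLISA SureFire Ultra multiplex in lysates, was fitted to a 4-parameter logistic model for IC50. Compound exposure was 2 h at 37° C, 5% CO2, 10-point 1:3 dilutions from 30 μM final, on cells plated the previous night.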

HRAS = HRAS (Homo sapiens, UniProt P01112); assay: SOS-catalyzed nucleotide exchange assay (Procedure A, TR-FRET), HRAS; format: biochemical; settings: read-out: HRAS GNE IC50
HRAS, sequence (P01112 with tags, fused parts or gaps): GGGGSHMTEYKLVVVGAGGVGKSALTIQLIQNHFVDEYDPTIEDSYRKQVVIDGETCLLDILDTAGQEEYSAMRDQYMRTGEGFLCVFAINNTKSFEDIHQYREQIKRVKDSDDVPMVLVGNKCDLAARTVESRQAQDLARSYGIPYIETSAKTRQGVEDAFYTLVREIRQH
How it was run: (§2)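 Signal ratio (520/495 nm, excitation 340 nm) reports Bodipy-GDP retention on biotinylated RAS after SOS-catalyzed exchange with 3 mM GTP. SOS was 40 nM, except 160 nM for G12V. Room-temperature exchange lasted 60 min (90 min for G12V), following a 60 min compound preincubation.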

SW620 cells = assay: Cellular phospho-ERK assay, SW620 cells (homozygous KRAS-G12V); format: cell-based; settings: Homo sapiens, read-out: SW620 pERK IC50
How it was run: as §1

KRAS-G12V = KRAS-G12V (Homo sapiens, UniProt P01116, G12V); assay: SOS-catalyzed nucleotide exchange assay (Procedure A, TR-FRET), KRAS-G12V; format: biochemical; settings: nucleotide exchange, read-out: KRAS G12V GNE IC50
KRAS-G12V, sequence (P01116 with tags, fused parts or gaps isoform P01116-2 G12V): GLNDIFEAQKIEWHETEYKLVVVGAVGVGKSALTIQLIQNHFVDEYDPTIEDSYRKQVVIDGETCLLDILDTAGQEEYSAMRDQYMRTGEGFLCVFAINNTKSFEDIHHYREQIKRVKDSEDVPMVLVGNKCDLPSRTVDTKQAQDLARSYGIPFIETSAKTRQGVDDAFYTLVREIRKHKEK
How it was run: (§3)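 TR-FRET readout (520/495 nm) of SOS-driven exchange of Bodipy-GDP for unlabeled GTP (3 mM) on biotinylated, Tb-streptavidin-bound RAS, after 60 min compound preincubation at room temperature. Exchange times and RAS/SOS levels: 60 min for WT (1/40 nM), G12C triple mutant (3/40 nM), NRAS (1.25/40 nM); 90 min for G12V (1.25/160 nM). Four-parameter logistic fits on normalized effect.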

[1] = molecular target: KRAS-G12C (C51S/C80L/C118S) (Homo sapiens, UniProt P01116, C118S/C51S/C80L/G12C); assay: SOS-catalyzed nucleotide exchange assay (Procedure A, TR-FRET), KRAS-G12C; format: biochemical; settings: nucleotide exchange, Procedure A; read-out: KRAS G12C GNE IC50
KRAS-G12C (C51S/C80L/C118S), sequence (P01116 with tags, fused parts or gaps isoform P01116-2 G12C/C51S/C80L/C118S): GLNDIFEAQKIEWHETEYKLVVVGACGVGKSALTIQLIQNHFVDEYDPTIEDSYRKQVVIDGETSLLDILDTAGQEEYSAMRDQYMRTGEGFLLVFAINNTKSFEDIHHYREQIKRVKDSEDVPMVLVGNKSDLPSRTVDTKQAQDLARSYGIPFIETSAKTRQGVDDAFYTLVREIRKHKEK
How it was run: as §3

KRAS-G13D = KRAS-G13D (Homo sapiens, UniProt P01116, G13D); assay: SOS-catalyzed nucleotide exchange assay (Procedure A, TR-FRET), KRAS-G13D; format: biochemical; settings: nucleotide exchange, Procedure A; read-out: KRAS G13D GNE IC50
KRAS-G13D, sequence (P01116 with tags, fused parts or gaps isoform P01116-2 G13D): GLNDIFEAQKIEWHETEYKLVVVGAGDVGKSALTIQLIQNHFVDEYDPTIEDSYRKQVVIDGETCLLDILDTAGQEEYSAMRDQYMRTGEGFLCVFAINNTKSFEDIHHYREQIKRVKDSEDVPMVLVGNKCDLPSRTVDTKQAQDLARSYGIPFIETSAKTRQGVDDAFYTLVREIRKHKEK

KRAS-WT = KRAS-WT (Homo sapiens, UniProt P01116); assay: SOS-catalyzed nucleotide exchange assay (Procedure A, TR-FRET), KRAS-WT; format: biochemical; settings: nucleotide exchange, read-out: KRAS WT GNE IC50
KRAS-WT, sequence (P01116 with tags, fused parts or gaps isoform P01116-2): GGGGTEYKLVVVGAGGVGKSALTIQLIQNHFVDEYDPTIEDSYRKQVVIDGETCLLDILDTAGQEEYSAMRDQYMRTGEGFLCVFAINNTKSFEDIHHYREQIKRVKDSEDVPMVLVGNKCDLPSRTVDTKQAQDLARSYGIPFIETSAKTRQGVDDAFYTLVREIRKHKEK
How it was run: as §3

NRAS = NRAS (Homo sapiens, UniProt P01111); assay: SOS-catalyzed nucleotide exchange assay (Procedure A, TR-FRET), NRAS; format: biochemical; settings: read-out: NRAS GNE IC50
NRAS, sequence (P01111 with tags, fused parts or gaps): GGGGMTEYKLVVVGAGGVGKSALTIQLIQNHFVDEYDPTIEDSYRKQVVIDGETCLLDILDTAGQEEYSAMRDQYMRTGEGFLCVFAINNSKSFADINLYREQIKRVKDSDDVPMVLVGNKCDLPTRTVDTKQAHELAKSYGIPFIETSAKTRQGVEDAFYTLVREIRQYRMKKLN
Excerpt: Procedure for SOS-Catalyzed Nucleotide Exchange Assay for KRAS-WT, G12C/D/V, G13D, HRAS, and NRAS (Procedure A)
Recombinant KRAS-G12C protein used in this assay has an additional triple mutation (C51S/C80L/C118S). Whereas KRAS-WT, G12D/V, G13D, HRAS and NRAS are in context of their WT protein sequence background. Specifically, the SOS-catalyzed nucleotide exchange assay utilizes a preformed TR-FRET complex containing a specific biotinylated RAS protein (KRAS-WT, G12C/V/D, G13D, HRAS, NRAS; described above) with Bodipy-GDP, and Terbium-streptavidin. Compounds are preincubated with this complex for 60 minutes. Subsequently, recombinant human SOS protein and unlabeled GTP are added to initiate the exchange reaction. Small molecule inhibitors stabilize the Bodipy-GDP complex whereas the untreated protein rapidly exchanges Bodipy-GDP for unlabeled GTP resulting in reduced TR-FRET signal.
To assemble the preformed TR-FRET complexes, each biotinylated RAS protein is diluted to 2 μM in an EDTA Buffer (20 mM HEPES pH 7.5, 50 mM sodium chloride, 10 mM EDTA, and 0.01% Tween) and incubated at room temperature for one hour. This mixture is then further diluted to 90 nM in an Assay Buffer (20 mM HEPES pH 7.5, 150 mM sodium chloride, 10 mM magnesium chloride, and 0.005% Tween) containing 15 nM of Terbium-Streptavidin (Invitrogen, catalog #PV3577) and 900 nM of Bodipy-GDP (Invitrogen, catalog #G22360) and incubated at room temperature for six hours. It should be noted that this preformed TR-FRET complex for each of the RAS protein were made ahead of time, aliquoted and stored at −80° C. until the day of the experiment.
Each test compound (10 mM stock in DMSO) is diluted in DMSO to make a final-10-point, 3-fold dilution and is acoustically dispensed into a 384-well assay plate (Corning, catalog #3820) using an Echo 550 (Labcyte). Each well of the assay plate receives 3 μL of a specific 3×RAS preformed TR-FRET complex and 3 μL of Assay Buffer and is incubated at room temperature for 60 minutes (preincubation time). Each well then receives 3 μL of 3×recombinant human SOS protein and GTP (Sigma, G8877) in Assay Buffer and is incubated at room temperature for 30 minutes (G13D), 60 minutes (KRAS WT/G12C/D, H/NRAS) or 90 minutes for G12V. […]
The time-resolved fluorescence resonance energy transfer (TR-FRET) signal is measured on an Envision (PerkinElmer) plate reader: Excitation filter=340 nm; emission 1=495 nm; emission2=520 nm; dichroic mirror=D400/D505; delay time=[…]. The signal of each well is determined as the ratio of the emission at 520 nm to that at 495 nm. Percent effect of each well is determined after normalization to control wells containing DMSO (no effect) or a saturating concentration of inhibitor (max effect). […]

KRAS-G12D = KRAS-G12D (Homo sapiens, UniProt P01116, G12D); assay: SOS-catalyzed nucleotide exchange assay (Procedure A, TR-FRET), KRAS-G12D; format: biochemical; settings: nucleotide exchange, read-out: KRAS G12D GNE IC50
KRAS-G12D, sequence (P01116 with tags, fused parts or gaps isoform P01116-2 G12D): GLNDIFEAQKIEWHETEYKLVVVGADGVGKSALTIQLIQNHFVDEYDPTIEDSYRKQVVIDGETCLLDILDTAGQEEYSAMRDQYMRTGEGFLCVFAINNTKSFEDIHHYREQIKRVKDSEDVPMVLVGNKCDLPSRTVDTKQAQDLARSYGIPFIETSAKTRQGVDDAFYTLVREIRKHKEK
How it was run: as §2

AsPC-1 cells = assay: Cellular phospho-ERK assay, AsPC-1 cells (homozygous KRAS-G12D); format: cell-based; settings: Homo sapiens, ASPC1, 2 h, read-out: AsPC1 pERK IC50
How it was run: as §1

PANC08.13 cells = assay: Cellular phospho-ERK assay, PANC08.13 cells (homozygous KRAS-G12D); format: cell-based; settings: Homo sapiens, read-out: PANC-08.13 pERK IC50
How it was run: as §1

[2] = SW-620, 2 hours compound incubation
[3] = amplified wild-type KRAS, 2 hours

IC50 (MKN-1 cells; 2 hours compound incubation) [nM]	IC50 (HRAS) [nM]	IC50 (SW620 cells; [2]) [nM]	IC50 (KRAS-G12V) [nM]	IC50 [1] [nM]	IC50 (KRAS-G13D) [nM]	IC50 (KRAS-WT) [nM]	IC50 (NRAS) [nM]	IC50 (KRAS-G12D) [nM]	IC50 (AsPC-1 cells; 2 hours compound incubation) [nM]	IC50 (PANC08.13 cells; PANC-08-13, 2 hours compound incubation) [nM]	SMILES	IC50 (MKN-1 cells; [3]) [nM]	IC50 (SW620 cells; SW-620, KRAS-G12V, 2 hours) [nM]	IC50 (PANC08.13 cells; PANC-08-13, KRAS-G12D, 2 hours) [nM]	IC50 (AsPC-1 cells; KRAS-G12D, 2 hours) [nM]
20.8	1450	2.29	4.53	19.8	3.13	3.79	7370	2.36	14.6		C#Cc1csc2cc3[nH]ncc3c(-c3nccc4c3sc3nc(OC[C@@]56CCCN5C[C@H](F)C6)nc(N5CCOC[C@@](C)(O)C5)c34)c12 [Ex-163, (6S)-4-(8-(5-ethyn-yl-1H-thieno[3,2-f]indazol-4-yl)-2-(((2R,7aS)-2-fluoro-tetrahydro-1H-pyr-rolizin-7a(5H)-yl)-methoxy)pyrido [4′,3′:4,5]thieno[2,3-d]pyrimidin-4-yl)-6-methyl-1,4-oxaze-pan-6-ol]				
14.6	1890	2.76	3.15	35.1	6.61	2.06		1.49	5.76		C#Cc1c(F)sc2cc3[nH]ncc3c(-c3nccc4c3sc3nc(OC[C@@]56CCCN5C[C@H](F)C6)nc(N5CCOC[C@@](C)(O)C5)c34)c12 [Ex-164]				
158	9430	49.7	12	47.7	13.6	9.46		2.91	53		C[C@@]1(O)COCCN(c2nc(OC[C@@]34CCCN3C/C(=C/F)C4)nc3sc4c(-c5c(C6CC6)c(Cl)cc6[nH]ncc56)nccc4c23)C1 [Ex-209, (6S)-4-(8-(6-chloro-5-cyclopropyl-1H-indazol-4-yl)-2-(((S,E)-2-(fluoro-methylene)tetra-hydro-1H-pyrrol-izin-7a(5H)-yl)-methoxy)pyrido [4′,3′:4,5]thieno [2,3-d]pyrimidin-4-yl)-6-methyl-1,4-oxazepan-6-ol]				

Further lines, the compound ahead of its results:

SMILES	IC50 (MKN-1 cells; 2 hours compound incubation) [nM]	IC50 (HRAS) [nM]	IC50 (SW620 cells; [2]) [nM]	IC50 (KRAS-G12V) [nM]	IC50 [1] [nM]	IC50 (KRAS-G13D) [nM]	IC50 (KRAS-WT) [nM]	IC50 (NRAS) [nM]	IC50 (KRAS-G12D) [nM]	IC50 (AsPC-1 cells; 2 hours compound incubation) [nM]	IC50 (PANC08.13 cells; PANC-08-13, 2 hours compound incubation) [nM]	IC50 (MKN-1 cells; [3]) [nM]	IC50 (SW620 cells; SW-620, KRAS-G12V, 2 hours) [nM]	IC50 (PANC08.13 cells; PANC-08-13, KRAS-G12D, 2 hours) [nM]	IC50 (AsPC-1 cells; KRAS-G12D, 2 hours) [nM]
Cc1cc2[nH]ncc2c(-c2nccc3c2sc2nc(OC[C@]4(CN(C)C)CC4(F)F)nc(N4CCOC[C@@](C)(O)C4)c23)c1C(F)(F)F [Ex-130, (6S)-4-(2-(((R)-1-((dimethylamino)-methyl)-2,2-di-fluorocyclopropyl)-methoxy)-8-(6-methyl-5-(trifluoro-methyl)-1H-indazol-4-yl)pyrido[4′,3′: 4,5]thieno[2,3-d]pyrimidin-4-yl)-6-methyl-1,4-oxaze-pan-6-ol]		4920		77.2	101	75.2	115		20.3			248	116	27.7	68.7
C#Cc1c(F)ccc2cc(O)cc(-c3nccc4c3sc3nc(OC[C@@]56CCCN5C[C@H](F)C6)nc(N5CCOC[C@@](C)(O)C5)c34)c12 [Ex-135, (S)-4-(8-(8-ethynyl-7-fluoro-3-hydroxy-naphthalen-1-yl)-2-(((2R,7aS)-2-fluoro-tetrahydro-1H-pyr-rolizin-7a(5H)-yl)-methoxy)pyrido [4′,3′:4,5]thieno[2,3-d]pyrimidin-4-yl)-6-methyl-1,4-oxaze-pan-6-ol]	3.86	1570	1.5	1.08	9.25	2.54	0.766	9400	1.47	4.61	1.4				
CN(C)C[C@@]1(COc2nc(N3CCOC[C@@](C)(O)C3)c3c(n2)sc2c(-c4c(C5CC5)c(Cl)cc5[nH]ncc45)nccc23)CC1(F)F [Ex-131, (6S)-4-(8-(6-chloro-5-cyclopropyl-1H-indazol-4-yl)-2-(((R)-1-((dimeth-ylamino)methyl)-2,2-difluorocyclo-propyl)methoxy)-pyrido[4′,3′:4,5]thieno[2,3-d]pyr-imidin-4-yl)-6-methyl-1,4-oxaze-pan-6-ol]		389		18.2	97.9	7.21	11.3	5160	3.57			22.8	15.1		21.8
